# Measured values: patent US20260262643A1, “HERBICIDAL BENZOXAZINES” (FMC CORPORATION, priority 2022, published 2026)
# Legend:
# [1] = system: barnyardgrass; assay: Test C preemergence; type: in vivo, Echinochloa crusgalli; settings: 0 to 100 scale (0 no effect, 100 complete control); for Barnyardgrass plant response rating: preemergence
# How it was run: (§1)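 Greenhouse herbicide screen, 10-day duration. Test chemicals in solvent/surfactant blend were sprayed onto soil at sowing (pre) or onto 2–10 cm seedlings at one to two leaves (post); injury scored visually against controls, 0 no effect to 100 complete control.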
# [2] = system: blackgrass; assay: Test C preemergence; type: in vivo, Alopecurus myosuroides; settings: 0 to 100 scale (0 no effect, 100 complete control); for Blackgrass plant response rating: preemergence
# How it was run: as §1
# [3] = system: corn; assay: Test C preemergence; type: in vivo, Zea mays; settings: 0 to 100 scale (0 no effect, 100 complete control); for Corn plant response rating: preemergence
# How it was run: as §1
# [4] = system: green foxtail; assay: Test C preemergence; type: in vivo, Setaria viridis; settings: 0 to 100 scale (0 no effect, 100 complete control); for Foxtail, Green plant response rating: preemergence
# How it was run: as §1
# [5] = system: kochia; assay: Test C preemergence; type: in vivo, Bassia scoparia; settings: 0 to 100 scale (0 no effect, 100 complete control); for Kochia plant response rating: preemergence
# How it was run: as §1
# [6] = system: oat, wild; assay: Test C preemergence; type: in vivo, Avena fatua; settings: 0 to 100 scale (0 no effect, 100 complete control); for Oat, Wild plant response rating: preemergence
# How it was run: as §1
# [7] = system: pigweed, palmer; assay: Test C preemergence; type: in vivo, Amaranthus palmeri; settings: 0 to 100 scale (0 no effect, 100 complete control); for Pigweed, Palmer plant response rating: preemergence
# How it was run: as §1
# [8] = system: ragweed; assay: Test C preemergence; type: in vivo, Ambrosia artemisiifolia; settings: 0 to 100 scale (0 no effect, 100 complete control); for Ragweed plant response rating: preemergence
# How it was run: as §1
# [9] = system: ryegrass, Italian; assay: Test C preemergence; type: in vivo, Lolium multiflorum; settings: 0 to 100 scale (0 no effect, 100 complete control); for Ryegrass, Italian plant response rating: preemergence
# How it was run: as §1
# [10] = system: soybean; assay: Test C preemergence; type: in vivo, Glycine max; settings: 0 to 100 scale (0 no effect, 100 complete control); for Soybean plant response rating: preemergence
# How it was run: as §1
# [11] = system: wheat; assay: Test C preemergence; type: in vivo, Triticum aestivum; settings: 0 to 100 scale (0 no effect, 100 complete control); for Wheat plant response rating: preemergence
# How it was run: as §1
# [12] = system: barnyardgrass; assay: Test C postemergence; type: in vivo, Echinochloa crusgalli; settings: 10 days
# How it was run: as §1
# [13] = system: blackgrass; assay: Test C postemergence; type: in vivo, Alopecurus myosuroides; settings: 10 days
# How it was run: as §1
# [14] = system: corn; assay: Test C postemergence; type: in vivo, Zea mays; settings: 10 days
# How it was run: as §1
# [15] = system: green foxtail; assay: Test C postemergence; type: in vivo, Setaria viridis; settings: 10 days
# How it was run: as §1
# [16] = system: kochia; assay: Test C postemergence; type: in vivo, Bassia scoparia; settings: 10 days
# How it was run: as §1
# [17] = system: oat, wild; assay: Test C postemergence; type: in vivo, Avena fatua; settings: 10 days
# How it was run: as §1
# [18] = system: pigweed, palmer; assay: Test C postemergence; type: in vivo, Amaranthus palmeri; settings: 10 days
# How it was run: as §1
# [19] = system: ragweed; assay: Test C postemergence; type: in vivo, Ambrosia artemisiifolia; settings: 10 days
# How it was run: as §1
# [20] = system: ryegrass, Italian; assay: Test C postemergence; type: in vivo, Lolium multiflorum; settings: 10 days
# How it was run: as §1
# [21] = system: soybean; assay: Test C postemergence; type: in vivo, Glycine max; settings: 10 days
# How it was run: as §1
# [22] = system: wheat; assay: Test C postemergence; type: in vivo, Triticum aestivum; settings: 10 days
# How it was run: as §1
# [23] = system: galium; assay: Test C postemergence; type: in vivo, Galium aparine; settings: 10 days
# How it was run: as §1
# [24] = system: horseweed; assay: Test C postemergence; type: in vivo, Erigeron canadensis; settings: 10 days
# How it was run: as §1
# [25] = system: barnyardgrass; assay: Test D flooded paddy test; type: in vivo, Echinochloa crus-galli; settings: 250 g ai/ha, applied to paddy water, visual rating after 13 to 14 days, scale 0 to 100 (0 no effect, 100 complete control)
# How it was run: (§2)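 2-leaf plants; flood 3 cm above soil; compound dosed into paddy water; greenhouse 13–14 d; visual rating vs controls, 0–100 (100 = complete control); dash = not tested.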
# [26] = system: ducksalad; assay: Test D flooded paddy test; type: in vivo, Heteranthera limosa; settings: 250 g ai/ha, applied to paddy water, visual rating after 13 to 14 days, scale 0 to 100 (0 no effect, 100 complete control)
# How it was run: as §2
# [27] = system: rice; assay: Test D flooded paddy test; type: in vivo, Oryza sativa; settings: 250 g ai/ha, applied to paddy water, visual rating after 13 to 14 days, scale 0 to 100 (0 no effect, 100 complete control)
# How it was run: as §2
# [28] = system: sedge, umbrella; assay: Test D flooded paddy test; type: in vivo, Cyperus difformis; settings: 250 g ai/ha, applied to paddy water, visual rating after 13 to 14 days, scale 0 to 100 (0 no effect, 100 complete control)
# How it was run: as §2
# [29] = Preemergence, 500 g ai/ha, visual rating after 10 days
# [30] = 125 g ai/ha, postemergence, 0 to 100 scale, 0 no effect, 100 complete control
# [31] = Postemergence, 500 g ai/ha, visual 0 to 100 scale (0 no effect, 100 complete control)
# [32] = 500 g ai/ha, postemergence, 0 to 100 scale (0 no effect, 100 complete control)
compound,measurement,setting,value
Cc1cccc2c1O[C@@H](C)CN2C(=O)c1cc(-n2cnc(C(C)C)n2)cc2ccoc12 [Compound 227],"Plant response rating, Barnyardgrass",[1]; [29],90
same,Barnyardgrass plant response rating,"[1]; Test C, 125 g ai/ha",80
same,"Plant response rating, Blackgrass",[2]; [29],90
same,Blackgrass plant response rating,"[2]; Test C, 125 g ai/ha",80
same,"Plant response rating, Corn",[3]; [29],60
same,Corn plant response rating,"[3]; Test C, 125 g ai/ha",50
same,"Plant response rating, Foxtail, Green",[4]; [29],100
same,"Foxtail, Green plant response rating","[4]; Test C, 125 g ai/ha",100
same,"Plant response rating, Kochia",[5]; [29],100
same,Kochia plant response rating,"[5]; Test C, 125 g ai/ha",90
same,"Plant response rating, Oat, Wild",[6]; [29],90
same,"Oat, Wild plant response rating","[6]; Test C, 125 g ai/ha",90
same,"Plant response rating, Pigweed, Palmer",[7]; [29],100
same,"Pigweed, Palmer plant response rating","[7]; Test C, 125 g ai/ha",90
same,"Plant response rating, Ragweed",[8]; [29],50
same,Ragweed plant response rating,"[8]; Test C, 125 g ai/ha",0
same,"Plant response rating, Ryegrass, Italian",[9]; [29],90
same,"Ryegrass, Italian plant response rating","[9]; Test C, 125 g ai/ha",90
same,"Plant response rating, Soybean",[10]; [29],90
same,Soybean plant response rating,"[10]; Test C, 125 g ai/ha",70
same,"Plant response rating, Wheat",[11]; [29],30
same,Wheat plant response rating,"[11]; Test C, 125 g ai/ha",0
same,"Plant response rating, Barnyardgrass",[12]; [30],40
same,"Plant response rating, Barnyardgrass",[12]; [31],70
same,"Plant response rating, Blackgrass",[13]; [30],50
same,"Plant response rating, Blackgrass",[13]; [31],80
same,"Plant response rating, Corn",[14]; [30],20
same,"Plant response rating, Corn",[14]; [31],80
same,"Plant response rating, Foxtail, Green",[15]; [30],80
same,"Plant response rating, Foxtail, Green",[15]; [31],90
same,"Plant response rating, Kochia",[16]; [30],90
same,"Plant response rating, Kochia",[16]; [31],100
same,"Plant response rating, Oat, Wild",[17]; [30],30
same,"Plant response rating, Oat, Wild",[17]; [31],60
same,"Plant response rating, Pigweed, Palmer",[18]; [30],100
same,"Plant response rating, Pigweed, Palmer",[18]; [31],100
same,"Plant response rating, Ragweed",[19]; [30],10
same,"Plant response rating, Ragweed",[19]; [31],50
same,"Plant response rating, Ryegrass, Italian",[20]; [30],90
same,"Plant response rating, Ryegrass, Italian",[20]; [31],100
same,"Plant response rating, Soybean",[21]; [30],100
same,"Plant response rating, Soybean",[21]; [31],100
same,"Plant response rating, Wheat",[22]; [30],20
same,"Plant response rating, Wheat",[22]; [31],60
same,"Plant response rating, Galium",[23]; [30],100
same,"Plant response rating, Galium",[23]; [31],100
same,"Plant response rating, Horseweed",[24]; [30],20
same,"Plant response rating, Horseweed",[24]; [31],40
same,"Plant response rating, Barnyardgrass (Flood)",[25],50
same,"Plant response rating, Ducksalad (Flood)",[26],80
same,"Plant response rating, Rice (Flood)",[27],10
same,"Plant response rating, Sedge, Umbrella (Flood)",[28],98
"Cc1ccc(-n2cnc(C(C)C)n2)cc1C(=O)N1CC(C(F)(F)F)Oc2c(Cl)cccc21 (single isomer, unassigned) [Compound 292]",Barnyardgrass plant response rating,[1]; 500 g ai/ha,90
same,Barnyardgrass plant response rating,"[1]; Test C, 125 g ai/ha",20
same,Blackgrass plant response rating,[2]; 500 g ai/ha,90
same,Blackgrass plant response rating,"[2]; Test C, 125 g ai/ha",30
same,Corn plant response rating,[3]; 500 g ai/ha,10
same,Corn plant response rating,"[3]; Test C, 125 g ai/ha",10
same,"Foxtail, Green plant response rating",[4]; 500 g ai/ha,100
same,"Foxtail, Green plant response rating","[4]; Test C, 125 g ai/ha",90
same,Kochia plant response rating,[5]; 500 g ai/ha,60
same,Kochia plant response rating,"[5]; Test C, 125 g ai/ha",30
same,"Oat, Wild plant response rating",[6]; 500 g ai/ha,80
same,"Oat, Wild plant response rating","[6]; Test C, 125 g ai/ha",40
same,"Pigweed, Palmer plant response rating",[7]; 500 g ai/ha,100
same,"Pigweed, Palmer plant response rating","[7]; Test C, 125 g ai/ha",100
same,Ragweed plant response rating,[8]; 500 g ai/ha,20
same,Ragweed plant response rating,"[8]; Test C, 125 g ai/ha",20
same,"Ryegrass, Italian plant response rating",[9]; 500 g ai/ha,100
same,"Ryegrass, Italian plant response rating","[9]; Test C, 125 g ai/ha",90
same,Soybean plant response rating,[10]; 500 g ai/ha,90
same,Soybean plant response rating,"[10]; Test C, 125 g ai/ha",40
same,Wheat plant response rating,[11]; 500 g ai/ha,50
same,Wheat plant response rating,"[11]; Test C, 125 g ai/ha",20
same,"Plant response rating, Barnyardgrass",[12]; [30],10
same,"Plant response rating, Barnyardgrass",[12]; [32],20
same,"Plant response rating, Blackgrass",[13]; [30],0
same,"Plant response rating, Blackgrass",[13]; [32],20
same,"Plant response rating, Corn",[14]; [30],10
same,"Plant response rating, Corn",[14]; [32],20
same,"Plant response rating, Foxtail, Green",[15]; [30],30
same,"Plant response rating, Foxtail, Green",[15]; [32],40
same,"Plant response rating, Kochia",[16]; [30],70
same,"Plant response rating, Kochia",[16]; [32],90
same,"Plant response rating, Oat, Wild",[17]; [30],0
same,"Plant response rating, Oat, Wild",[17]; [32],50
same,"Plant response rating, Pigweed, Palmer",[18]; [30],80
same,"Plant response rating, Pigweed, Palmer",[18]; [32],80
same,"Plant response rating, Ragweed",[19]; [30],30
same,"Plant response rating, Ragweed",[19]; [32],20
same,"Plant response rating, Ryegrass, Italian",[20]; [30],0
same,"Plant response rating, Ryegrass, Italian",[20]; [32],60
same,"Plant response rating, Soybean",[21]; [30],100
same,"Plant response rating, Soybean",[21]; [32],100
same,"Plant response rating, Wheat",[22]; [30],20
same,"Plant response rating, Wheat",[22]; [32],30
same,"Plant response rating, Galium",[23]; [30],70
same,"Plant response rating, Galium",[23]; [32],80
same,"Plant response rating, Horseweed",[24]; [30],20
same,"Plant response rating, Horseweed",[24]; [32],60
same,"Plant response rating, Barnyardgrass (Flood)",[25],0
same,"Plant response rating, Ducksalad (Flood)",[26],0
same,"Plant response rating, Rice (Flood)",[27],0
same,"Plant response rating, Sedge, Umbrella (Flood)",[28],0
